Test results as given in US12214092B2, “Systems and methods for treating biological fluids” (Cerus Corporation, priority 2017, dated 2025).

Key:
[1] = test system: vesicular stomatitis virus (VSV); type: cell-based; settings: 150 μM; INT-100 ~6.4 J/cm^2
E. coli = experiment: Amotosalen and UV light (265-385 nm LEDs) treatment of E. coli in plasma, six-well plates, colony forming unit assay; type: cell-based; settings: for Log reduction from S-59 / Log reduction total: ~3 J/cm^2, plasma
From the text: (§1) This system comprised single arrays facing (e.g., opposing) a platform positioned for the illumination of biological fluids placed on the platform (see e.g., FIG. 5). System controls provided for adjustment of the LEDs during treatment of the biological fluid samples, controlling both the timing and intensity of illumination by the LEDs to achieve a desired light UV light dose. Evaluation of photochemical conversion, photoproduct formation, pathogen inactivation, and plasma and/or platelet quality parameters are performed for each light source wavelength as described previously. In one study using the device, photochemical inactivation of various bacteria were tested for each of the above-referenced LEDs together with amotosalen. The bacteria included E. coli (Gram negative), S. epidermidis (Gram positive), and P. acnes (anaerobe). As there are known germicidal effects of ultraviolet light with wavelengths in the UVC and UVB range, the study was controlled to determine for each LED wavelength the total inactivation levels, as well as inactivation levels specifically resulting from the UV light (without added amotosalen) or the photochemical treatment process itself.

[2] = Amotosalen concentration pre- and post-UV in platelets (plasma or PAS/plasma), 340 nm ~7.2 J/cm^2, HPLC
Method: A study was performed to evaluate the photoconversion of amotosalen in platelets in 10000 plasma, as well as function of the platelets over 7 days (Day 3, Day 7) following photochemical treatment using the 340 nm device of the present disclosure. Multiple donor platelet units in 10000 plasma (5 units, ˜278-391 mL) were pooled and split into 5 units of ˜285 mL each, to be used as an untreated control, or treated with amotosalen at different concentrations, with ultraviolet A illumination using the 340 nm device. Amotosalen was added to a concentration of 30, 60, 90 or 110 μM, then pre-illumination (pre-UV) samples were removed for analysis, and the remainder of the units subjected to illumination at ˜7.2 J/cm^2. Post-illumination (Post-UV) samples were then removed for post-treatment analysis.

P. acnes = experiment: Amotosalen and UV light (265-385 nm LEDs) treatment of P. acnes in plasma, colony forming unit assay; type: cell-based; settings: 15 μM amotosalen, ~6.4 J/cm^2, plasma
From the text: as §1

Cc1oc2c(C)c3oc(=O)cc(C)c3cc2c1COCCN [S-59, 3-(2-aminoethoxymethyl)-2,5,9-trimethylfuro[3,2-g]chromen-7-one]
Post-treatment titer [1]: 2.9 log PFU
Log reduction from S-59 (E. coli; 15 μM amotosalen, 265 nm): 0 log
Log reduction total (E. coli; 15 μM amotosalen, 265 nm): 4.52 log
Log reduction from S-59 (E. coli; 15 μM amotosalen, 280 nm): 0 log
Log reduction total (E. coli; 15 μM amotosalen, 280 nm): 4.52 log
Log reduction from S-59 (E. coli; 15 μM amotosalen, 310 nm): 1.15 log
Log reduction total (E. coli; 15 μM amotosalen, 310 nm): 4.52 log
Log reduction from S-59 (E. coli; 15 μM amotosalen, 325 nm): 3.81 log
Log reduction total (E. coli; 15 μM amotosalen, 325 nm): 4.52 log
Log reduction from S-59 (E. coli; 15 μM amotosalen, 340 nm): 2.94 log
Log reduction total (E. coli; 15 μM amotosalen, 340 nm): 4.52 log
Log reduction from S-59 (E. coli; 15 μM amotosalen, 365 nm): 2.76 log
Log reduction total (E. coli; 15 μM amotosalen, 365 nm): 4.52 log
Log reduction from S-59 (E. coli; 15 μM amotosalen, 385 nm): 0.49 log
Log reduction total (E. coli; 15 μM amotosalen, 385 nm): 1.5 log
Log reduction from S-59 (E. coli; 150 μM amotosalen, 265 nm): 0.54 log
Log reduction total (E. coli; 150 μM amotosalen, 265 nm): 5.01 log
Log reduction from S-59 (E. coli; 150 μM amotosalen, 280 nm): 0.59 log
Log reduction total (E. coli; 150 μM amotosalen, 280 nm): 5.38 log
Log reduction from S-59 (E. coli; 150 μM amotosalen, 310 nm): 2.29 log
Log reduction total (E. coli; 150 μM amotosalen, 310 nm): 6.23 log
Log reduction from S-59 (E. coli; 150 μM amotosalen, 325 nm): 5.36 log
Log reduction total (E. coli; 150 μM amotosalen, 325 nm): 5.70 log
Log reduction from S-59 (E. coli; 150 μM amotosalen, 340 nm): 4.93 log
Log reduction total (E. coli; 150 μM amotosalen, 340 nm): 5.64 log
Log reduction from S-59 (E. coli; 150 μM amotosalen, 365 nm): 4.90 log
Log reduction total (E. coli; 150 μM amotosalen, 365 nm): 5.30 log
Log reduction from S-59 (E. coli; 150 μM amotosalen, 385 nm): 4.34 log
Log reduction total (E. coli; 150 μM amotosalen, 385 nm): 4.95 log
photochemical inactivation (E. coli; summary for bacteria of Example 8, amotosalen+325 nm and amotosalen+340 nm illumination): greater than 4 logs
Amotosalen concentration ([2]; 30 μM, PAS/Plasma, Post-UV): 0.3 µM
Amotosalen concentration ([2]; 30 μM, PAS/Plasma, Pre-UV): 30.5 µM
Amotosalen concentration ([2]; 30 μM, Plasma, Post-UV): 1.1 µM
Amotosalen concentration ([2]; 30 μM, Plasma, Pre-UV): 32.7 µM
Amotosalen concentration ([2]; 60 μM, PAS/Plasma, Post-UV): 0.7 µM
Amotosalen concentration ([2]; 60 μM, PAS/Plasma, Pre-UV): 61.2 µM
Amotosalen concentration ([2]; 60 μM, Plasma, Post-UV): 2.3 µM
Amotosalen concentration ([2]; 60 μM, Plasma, Pre-UV): 62.0 µM
Amotosalen concentration ([2]; 90 μM, PAS/Plasma, Post-UV): 1.0 µM
Amotosalen concentration ([2]; 90 μM, PAS/Plasma, Pre-UV): 90.5 µM
Amotosalen concentration ([2]; 90 μM, Plasma, Post-UV): 4.0 µM
Amotosalen concentration ([2]; 90 μM, Plasma, Pre-UV): 89.7 µM
Amotosalen concentration ([2]; 110 μM, PAS/Plasma, Post-UV): 1.2 µM
Amotosalen concentration ([2]; 110 μM, PAS/Plasma, Pre-UV): 120.7 µM
Amotosalen concentration ([2]; 110 μM, Plasma, Post-UV): 5.5 µM
Amotosalen concentration ([2]; 110 μM, Plasma, Pre-UV): 105.8 µM
Log reduction from S-59 (P. acnes; 265 nm): 1.60 log
Log reduction total (P. acnes; 265 nm): 6.03 log
Log reduction from S-59 (P. acnes; 280 nm): 0.71 log
Log reduction total (P. acnes; 280 nm): 1.09 log
Log reduction from S-59 (P. acnes; 310 nm): 5.67 log
Log reduction total (P. acnes; 310 nm): 6.99 log
Log reduction from S-59 (P. acnes; 325 nm): 6.54 log
Log reduction total (P. acnes; 325 nm): 6.69 log
Log reduction from S-59 (P. acnes; 340 nm): 6.78 log
Log reduction total (P. acnes; 340 nm): 6.99 log
Log reduction from S-59 (P. acnes; 365 nm): 6.67 log
Log reduction total (P. acnes; 365 nm): 6.99 log
Log reduction from S-59 (P. acnes; 385 nm): 1.64 log
Log reduction total (P. acnes; 385 nm): 1.97 log
